pIC50: −log10 of the molar value.
How the values were obtained:
[1] = target: T1, recombinant human Cox-2 (r-hu Cox-2) (Homo sapiens, UniProt P35354); experiment: Recombinant human PGHS-2 enzyme assay (RHUCX2); format: biochemical; settings: read-out: RHUCX2 IC50 (parenthetical value)
T1 construct: made in house; host or cells: baculovirus/Sf9 insect cells (microsomes)
T1 sequence (P35354 18-604): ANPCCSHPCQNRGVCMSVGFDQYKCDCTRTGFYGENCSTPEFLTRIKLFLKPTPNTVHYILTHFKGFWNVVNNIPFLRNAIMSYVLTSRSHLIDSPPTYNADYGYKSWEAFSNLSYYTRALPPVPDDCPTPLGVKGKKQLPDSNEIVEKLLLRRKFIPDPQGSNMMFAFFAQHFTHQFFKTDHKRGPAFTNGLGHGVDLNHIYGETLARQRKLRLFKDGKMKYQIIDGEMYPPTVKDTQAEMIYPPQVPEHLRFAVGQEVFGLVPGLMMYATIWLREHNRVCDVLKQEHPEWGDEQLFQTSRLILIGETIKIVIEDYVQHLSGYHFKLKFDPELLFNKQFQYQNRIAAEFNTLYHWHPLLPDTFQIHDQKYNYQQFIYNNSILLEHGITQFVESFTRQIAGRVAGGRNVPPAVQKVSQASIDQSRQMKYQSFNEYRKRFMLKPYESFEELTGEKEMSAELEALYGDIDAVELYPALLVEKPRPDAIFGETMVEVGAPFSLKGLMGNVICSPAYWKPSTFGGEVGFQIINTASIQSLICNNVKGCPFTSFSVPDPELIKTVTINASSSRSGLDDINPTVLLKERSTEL
How it was run: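 PGE2 by EIA (optical density) → % inhibition vs control-group mean → IC50 from linear regression.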

[2] = target: T2, human amnionic whole cell cyclooxygenase-2 (WISH cells) (Homo sapiens, UniProt P35354); experiment: IL-1β induced PGE2 production in WISH cells; format: cell-based; settings: read-out: Wish IC50 (parenthetical value)
T2 construct: endogenous in cells; host or cells: human amnionic WISH cells, induced with IL-1beta
T2 sequence (P35354 18-604): T1 sequence (P35354 18-604)
How it was run: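 PGE2 was quantified by enzyme immunoassay (optical density read) against standards made up in the matching medium. WISH cells at 80% confluence, washed and placed in serum-free Neuman-Tytell medium, received 5 ng/ml IL-1β plus test compound or DMSO vehicle (0.01% v/v).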

[3] = tested on: prostaglandin biosynthesis in vivo (pleural lavage eicosanoids); experiment: Rat carrageenan pleural inflammation (CIP) model
How it was run: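 Male adrenalectomized Sprague-Dawley rats were dosed orally with compound suspended in PEG 400, 30 minutes before intrapleural 2% lambda carrageenan. Pleural lavage collected 4 hours later went into methanol (66% final), and eicosanoids were measured by EIA. Inhibition relative to control mean; ED50 by linear regression.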

[4] = tested on: carrageenan induced paw edema; experiment: Carrageenan induced paw edema (CPE) in rats; format: in vivo; settings: 10 mpk oral, rat, 3 hours after carrageenan; read-out: CPE % Inhib. @ 10 mpk
How it was run: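 Male Sprague-Dawley rats (170–190 g) dosed orally in PEG 400, 1 h before subplantar 0.1 ml 1% lambda carrageenan in right hindpaw. Plethysmographic paw volume at 0 and 3 h; edema as difference, % inhibition versus control mean (±SEM), Dunnett's test, ED50 by linear regression.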

[5] = tested on: air pouch prostaglandin biosynthesis (Cox-2); experiment: Carrageenan induced air pouch prostaglandin biosynthesis model (CAP); format: in vivo, rat; settings: 4 h; 3 mpk, rat; read-out: CAP % Inhib. @ 3 mpk
How it was run: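 Male Sprague Dawley rats with dorsal air pouches (20 mL air day 0, 10 mL day 3) received 0.2% lambda carrageenan in saline into the pouch on day 7. Compounds dosed at 0.1 to 10 mg/kg 30 min before carrageenan; pouch lavaged 4 h later, prostaglandins measured by EIA. Percent inhibition versus control mean; ED50 by linear regression.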

pIC50 [1]: 6.46 | pIC50 [2]: 7.30 | melting point: 213 to 216 °C
SMILES: NS(=O)(=O)c1ccc(-c2cnn(-c3ccc(F)cc3)c(=O)c2-c2ccc(F)cc2)cc1 [Example 89]
inhibition in vivo at 10 mg/kg ([3]; 4 h, 10 mpk oral, read-out: CIP % Inhib. @ 10 mpk): 68.3% | ED50 ([3]; oral): 3.4 mg/kg | inhibition in vivo at 10 mg/kg [4]: 45.5% | inhibition in vivo at 3 mg/kg [5]: 94%

— patent US20020028938A1, “Prostaglandin endoperoxide H synthase biosynthesis inhibitors” (priority 1997, published 2002)
